The target of one series is T1, Caspase-1 (Homo sapiens, UniProt P29466).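 Also: Caspase-1 enzyme inhibition assay with a peptide substrate; in other assays of this panel Not Active means under 50% inhibition at 10 µM.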
T1 sequence (P29466 whole entry): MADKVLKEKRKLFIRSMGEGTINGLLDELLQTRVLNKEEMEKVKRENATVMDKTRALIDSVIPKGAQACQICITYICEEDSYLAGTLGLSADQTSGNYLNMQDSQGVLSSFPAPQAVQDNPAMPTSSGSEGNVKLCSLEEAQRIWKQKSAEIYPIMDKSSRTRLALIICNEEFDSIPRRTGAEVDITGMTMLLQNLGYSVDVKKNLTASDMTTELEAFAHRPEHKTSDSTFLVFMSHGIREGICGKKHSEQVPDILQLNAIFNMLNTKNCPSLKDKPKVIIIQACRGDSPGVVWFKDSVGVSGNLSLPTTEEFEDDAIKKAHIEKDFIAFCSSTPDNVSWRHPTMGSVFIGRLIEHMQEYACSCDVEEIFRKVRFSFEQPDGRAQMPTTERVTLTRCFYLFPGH
More on the design: species or system Escherichia coli.

Series [1] addresses Tyrosine-protein kinase Lck (Homo sapiens, UniProt P06239). Put plainly: DRUGMATRIX: Protein Tyrosine Kinase, LCK enzyme inhibition (substrate: Poly(Glu:Tyr)). Particulars: Not Active = under 50% inhibition at 10 µM; for IC50: insect cells. The class given is cell-based, Insect cells.
In the next series the target is T2, Glucocorticoid receptor (Homo sapiens, UniProt P04150). Also: in other assays of this panel Not Active means under 50% inhibition at 10 µM.
T2 sequence (P04150 whole entry): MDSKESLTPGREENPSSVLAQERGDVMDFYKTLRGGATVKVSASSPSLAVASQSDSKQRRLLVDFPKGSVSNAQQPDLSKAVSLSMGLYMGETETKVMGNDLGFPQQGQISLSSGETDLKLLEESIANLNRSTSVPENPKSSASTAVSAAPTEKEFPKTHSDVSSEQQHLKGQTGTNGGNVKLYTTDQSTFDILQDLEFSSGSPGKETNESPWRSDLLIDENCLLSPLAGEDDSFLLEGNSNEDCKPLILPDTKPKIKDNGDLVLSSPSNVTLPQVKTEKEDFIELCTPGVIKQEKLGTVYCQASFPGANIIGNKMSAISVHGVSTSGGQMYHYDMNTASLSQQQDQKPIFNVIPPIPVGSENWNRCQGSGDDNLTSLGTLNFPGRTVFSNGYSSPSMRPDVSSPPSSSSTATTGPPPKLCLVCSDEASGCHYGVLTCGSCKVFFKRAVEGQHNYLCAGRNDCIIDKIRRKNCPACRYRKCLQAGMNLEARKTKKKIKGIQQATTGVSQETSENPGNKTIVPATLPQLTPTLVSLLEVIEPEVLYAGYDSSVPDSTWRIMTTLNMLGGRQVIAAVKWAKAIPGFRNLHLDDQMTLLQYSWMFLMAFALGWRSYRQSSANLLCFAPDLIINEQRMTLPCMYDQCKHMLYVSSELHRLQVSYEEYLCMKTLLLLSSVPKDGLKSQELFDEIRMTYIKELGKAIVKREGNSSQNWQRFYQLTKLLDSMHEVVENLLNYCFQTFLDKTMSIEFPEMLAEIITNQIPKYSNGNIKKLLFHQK
Particulars: hela s3.

Series [2] in a line: DRUGMATRIX: GABAA, Muscimol, Central radioligand binding (ligand: [3H] Muscimol). The class given is cell membranes, Rattus norvegicus, Wistar, Brain, Membrane. The settings on record: Not Active = under 50% inhibition at 10 µM.
The next series has as its target D(3) dopamine receptor (Homo sapiens, UniProt P35462). Put plainly: DRUGMATRIX: Dopamine D3 radioligand binding (ligand: [3H] Spiperone). Type of series: cell membranes, CHO, Membrane. The settings on record: for pIC50: read-out: IC50; for pKi: read-out: Ki; for IC50: cho.
Series [3] can be described thus: DRUGMATRIX: Calcium Channel Type L, Phenylalkylamine radioligand binding (ligand: [3H] (-)-Desmethoxyverapamil (D-888)). Particulars: Not Active = under 50% inhibition at 10 µM. The class given is cell membranes, Rattus norvegicus, Wistar, Brain, Membrane.
The target in a further series is Cytochrome P450 2C19 (Homo sapiens, UniProt P33261). Particulars: bti-tn-5b1-4. Also: in other assays of this panel Not Active means under 50% inhibition at 10 µM.
Chain of Cytochrome P450 2C19 (P33261 whole entry): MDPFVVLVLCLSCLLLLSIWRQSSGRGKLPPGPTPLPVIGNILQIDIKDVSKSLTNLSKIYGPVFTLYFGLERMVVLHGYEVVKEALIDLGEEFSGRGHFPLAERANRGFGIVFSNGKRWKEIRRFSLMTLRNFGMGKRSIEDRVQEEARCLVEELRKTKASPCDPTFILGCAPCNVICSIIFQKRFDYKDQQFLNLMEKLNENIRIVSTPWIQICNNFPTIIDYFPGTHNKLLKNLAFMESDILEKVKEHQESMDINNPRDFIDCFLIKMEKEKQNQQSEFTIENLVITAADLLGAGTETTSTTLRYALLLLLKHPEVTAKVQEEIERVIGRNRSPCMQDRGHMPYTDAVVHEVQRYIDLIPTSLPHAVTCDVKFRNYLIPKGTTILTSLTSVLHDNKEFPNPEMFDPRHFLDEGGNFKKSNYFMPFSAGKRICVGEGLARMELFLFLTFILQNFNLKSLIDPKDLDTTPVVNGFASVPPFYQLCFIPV

pIC50, pKi: −log10 of the molar value.

Chain of D(3) dopamine receptor (P35462 whole entry): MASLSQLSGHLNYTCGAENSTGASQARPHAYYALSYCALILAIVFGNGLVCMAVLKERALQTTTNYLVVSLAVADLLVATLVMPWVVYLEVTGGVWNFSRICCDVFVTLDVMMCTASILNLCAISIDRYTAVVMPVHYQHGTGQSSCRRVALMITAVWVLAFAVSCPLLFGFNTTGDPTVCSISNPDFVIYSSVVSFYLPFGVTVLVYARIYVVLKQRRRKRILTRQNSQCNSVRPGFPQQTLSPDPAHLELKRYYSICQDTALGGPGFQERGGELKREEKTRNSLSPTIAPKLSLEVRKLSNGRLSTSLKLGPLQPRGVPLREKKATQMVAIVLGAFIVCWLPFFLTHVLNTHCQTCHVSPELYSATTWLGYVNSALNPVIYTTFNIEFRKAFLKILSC
Chain of Tyrosine-protein kinase Lck (P06239 whole entry): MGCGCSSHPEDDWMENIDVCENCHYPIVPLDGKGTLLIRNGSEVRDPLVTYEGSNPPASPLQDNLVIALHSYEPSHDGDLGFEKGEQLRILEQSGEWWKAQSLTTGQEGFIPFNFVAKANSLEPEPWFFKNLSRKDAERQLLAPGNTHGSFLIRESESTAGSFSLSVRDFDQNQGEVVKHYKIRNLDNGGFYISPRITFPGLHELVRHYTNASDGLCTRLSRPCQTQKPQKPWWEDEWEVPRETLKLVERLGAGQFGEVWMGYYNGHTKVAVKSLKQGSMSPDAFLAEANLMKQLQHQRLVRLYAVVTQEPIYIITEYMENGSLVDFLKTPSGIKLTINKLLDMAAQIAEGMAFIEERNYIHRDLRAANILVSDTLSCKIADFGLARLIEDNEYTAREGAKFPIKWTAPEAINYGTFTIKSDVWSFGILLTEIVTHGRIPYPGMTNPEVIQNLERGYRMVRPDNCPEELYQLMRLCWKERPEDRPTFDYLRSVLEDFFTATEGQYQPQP

The term pIC50 denotes −log10 of the IC50, conventionally taken in molar units. Usually pKi stands for the negative decadic logarithm of the Ki, by convention in mol/L. As for `Cc1c(C)c2c(c(C)c1O)CCC(C)(CN1CCN(c3cc(N4CCCC4)nc(N4CCCC4)n3)CC1)O2` (stereo not given), the IC50 entry (against Caspase-1; at Glucocorticoid receptor; in series [2]; in series [3]) was “Not Active” in each case. Further, the pIC50 in series [1] (read-out: IC50) is 4.77; at D(3) dopamine receptor, 5.28. For the same molecule, the Ki result in series [2] and in series [3] was “Not Active” each time. Moreover, the pKi on D(3) dopamine receptor was 5.75.

Regarding `COc1ccc(CCN(C)CCCC(C#N)(c2ccc(OC)c(OC)c2)C(C)C)cc1OC` (stereo not given), the IC50 result (against Caspase-1; against Cytochrome P450 2C19; in series [1]; in series [2]) was “Not Active” in each case. Besides, the Ki result (on Cytochrome P450 2C19; in series [2]) was “Not Active” in each case. Besides, the pIC50 in series [3] (read-out: IC50) is 7.33. In addition, the pKi in series [3] (read-out: Ki) was 7.35.

Take `CC(C)Cc1ccc([C@@H](C)C(=O)O)cc1` [(R)-IBUPROPHEN]: the IC50 result (at Caspase-1; at Cytochrome P450 2C19; in series [1]; against Glucocorticoid receptor; in series [2]; at D(3) dopamine receptor) was “Not Active” throughout. Also, the IC50 entry in series [3] is “Not Active”. In addition, the Ki result (on Cytochrome P450 2C19; in series [2]; in series [3]) was “Not Active” each time.

On to `CN(C)CCOC(c1ccccc1)c1ccccc1` [DIPHENHYDRAMINE], for which the IC50 entry (against Caspase-1; in series [1]; against Glucocorticoid receptor; on D(3) dopamine receptor) was “Not Active” throughout.

Consider `Clc1ccc(COC(Cn2ccnc2)c2ccc(Cl)cc2Cl)cc1` (stereo not given) [ECONAZOLE], for which the IC50 result (at Caspase-1; in series [1]; on Glucocorticoid receptor) was “Not Active” in each case.

For the molecule `CCN(CC)CCOc1ccc(/C(=C(/Cl)c2ccccc2)c2ccccc2)cc1` [ENCLOMIPHENE], the IC50 result (on Caspase-1; against Cytochrome P450 2C19; in series [1]; against Glucocorticoid receptor) was “Not Active” in each case. The Ki result at Cytochrome P450 2C19 is on record as “Not Active”.

`Fc1ccc(C(c2ccc(F)cc2)N2CCN(C/C=C/c3ccccc3)CC2)cc1` [FLUNARIZINE]: the IC50 entry (against Caspase-1; on Cytochrome P450 2C19; in series [1]; on Glucocorticoid receptor) was “Not Active” throughout. Also, the Ki result at Cytochrome P450 2C19 is “Not Active”. In addition, at D(3) dopamine receptor, the pIC50 is 7.01. For the same molecule, on D(3) dopamine receptor, the negative-log Ki (pKi) was 7.48.

In the case of `CNCCC(Oc1ccc(C(F)(F)F)cc1)c1ccccc1` (stereo not given) [FLUOXETINE], the IC50 result (on Caspase-1; on Cytochrome P450 2C19; in series [1]; against Glucocorticoid receptor; at D(3) dopamine receptor) was “Not Active” each time. In addition, the Ki result on Cytochrome P450 2C19 is recorded as “Not Active”.

For the molecule `Cc1ccc(NC(=O)c2ccc(CN3CCN(C)CC3)cc2)cc1Nc1nccc(-c2cccnc2)n1` [IMATINIB], the IC50 entry against Caspase-1, against Cytochrome P450 2C19, on Glucocorticoid receptor and at D(3) dopamine receptor was “Not Active” each time. On Cytochrome P450 2C19, the Ki entry is “Not Active”.

`CC(C)Oc1ccc2c(=O)c(-c3ccccc3)coc2c1` [IPRIFLAVONE]: the IC50 result (against Caspase-1; against Cytochrome P450 2C19; in series [1]; against Glucocorticoid receptor; in series [2]; on D(3) dopamine receptor) was “Not Active” each time. In series [3], the IC50 result is “Not Active”. The Ki result (on Cytochrome P450 2C19; in series [2]; in series [3]) was “Not Active” in each case.

For the molecule `CCN1CCC[C@H]1CNC(=O)c1cc(S(N)(=O)=O)ccc1OC` [LEVOSULPIRIDE], the IC50 entry (against Caspase-1; against Cytochrome P450 2C19; in series [1]; on Glucocorticoid receptor; in series [2]; in series [3]) was “Not Active” each time. The Ki result (at Cytochrome P450 2C19; in series [2]; in series [3]) was “Not Active” in each case.

As for `CCN(CC)CC(=O)Nc1c(C)cccc1C` [LIDOCAINE], the IC50 entry (on Caspase-1; in series [1]; against Glucocorticoid receptor; in series [2]; on D(3) dopamine receptor; in series [3]) was “Not Active” in each case. The Ki result in series [2] and in series [3] was “Not Active” in each case.

For the molecule `C[C@H]1C[C@@H]2[C@H]([C@@H](O)C[C@@]3(C)[C@H]2CC[C@]3(O)C(=O)CO)[C@@]2(C)C=CC(=O)C=C12` [METHYLPREDNISOLONE], the IC50 result (on Caspase-1; in series [1]; in series [2]; on D(3) dopamine receptor; in series [3]) was “Not Active” in each case. Besides, the Ki result in series [2] and in series [3] was “Not Active” in each case.

With `Cc1cccc(C)c1OCC(C)N` (stereo not given) [MEXILETINE], the IC50 entry (against Caspase-1; against Cytochrome P450 2C19; in series [1]; in series [2]; at D(3) dopamine receptor; in series [3]) was “Not Active” throughout. Also, the Ki entry (on Cytochrome P450 2C19; in series [2]; in series [3]) was “Not Active” in each case.

On to `CC[C@@H](C(=O)[C@@H](C)[C@@H](O)[C@H](C)[C@@H]1O[C@@H]([C@@H](CC)C(=O)O)CC[C@@H]1C)[C@H]1O[C@]2(C=C[C@@H](O)[C@]3(CC[C@@](C)([C@H]4CC[C@](O)(CC)[C@H](C)O4)O3)O2)[C@H](C)C[C@@H]1C` [SALINOMYCIN], for which the IC50 result (on Caspase-1; at Cytochrome P450 2C19; in series [1]; in series [2]; on D(3) dopamine receptor; in series [3]) was “Not Active” in each case. Besides, the Ki result (on Cytochrome P450 2C19; in series [2]; in series [3]) was “Not Active” throughout.

For the molecule `O=C(Oc1ccccc1C(=O)O)c1ccccc1O` [SALSALATE], the IC50 result (at Caspase-1; at Cytochrome P450 2C19; in series [1]; in series [2]; at D(3) dopamine receptor; in series [3]) was “Not Active” each time. Further, the Ki result (on Cytochrome P450 2C19; in series [2]; in series [3]) was “Not Active” throughout.

On to `CN[C@H]1CC[C@@H](c2ccc(Cl)c(Cl)c2)c2ccccc21` [SERTRALINE], for which the IC50 entry (at Caspase-1; in series [1]; against Glucocorticoid receptor; at D(3) dopamine receptor) was “Not Active” in each case.

Turning to `O.O.O.O.O.O.[Cl-].[Cl-].[Sr+2]` [STRONTIUM CHLORIDE HEXAHYDRATE], the IC50 result (on Caspase-1; against Cytochrome P450 2C19; in series [1]; in series [2]; at D(3) dopamine receptor; in series [3]) was “Not Active” throughout. Besides, the Ki result (on Cytochrome P450 2C19; in series [2]; in series [3]) was “Not Active” in each case.

For `CCCCNc1ccc(C(=O)OCCN(C)C)cc1` [TETRACAINE], the IC50 result (against Caspase-1; in series [1]; at Glucocorticoid receptor; in series [2]; at D(3) dopamine receptor; in series [3]) was “Not Active” throughout. Besides, the Ki entry in series [2] and in series [3] was “Not Active” each time.

On to `Cn1c(=O)c2nc[nH]c2n(C)c1=O.O` [THEOPHYLLINE], for which the IC50 entry (at Caspase-1; at Cytochrome P450 2C19; in series [1]; in series [2]; on D(3) dopamine receptor; in series [3]) was “Not Active” each time. Also, the Ki result (on Cytochrome P450 2C19; in series [2]; in series [3]) was “Not Active” in each case.

In the case of `Clc1ccccc1CN1CCc2sccc2C1` [TICLOPIDINE], the IC50 entry (at Caspase-1; in series [1]; in series [2]; on D(3) dopamine receptor; in series [3]) was “Not Active” each time. Also, the Ki entry in series [2] and in series [3] was “Not Active” each time.

The record behind these values is ChEMBL document CHEMBL1909046, “DrugMatrix in vitro pharmacology data”.
